Some targets named below: HLA-DR DRB1*0101 (DR1) (Homo sapiens, UniProt P01903+P01911, A100R/D57E/F55L/F60I/F76Y/I96L/L162R/M171V/P40L/Q125E/R42F/V115G/Y59C); HLA-DR DRB1*0901 (DR9) (Homo sapiens, UniProt P01903+P01911, A100R/A103E/D57H/D86V/F55Y/F60I/F76Y/I96F/K127E/L162R/M171V/P40D/Q125H/Q99R/R33Q/R42F/S133A/S66N/T210M/V115G/W38K/Y107V/Y59G/Y89S); HLA-DR DRB1*0401 (DR4) (Homo sapiens, UniProt P01903+P01911, A100K/A169T/F76Y/I96L/K127E/L162R/M171V/N62H/P40V/Q125Y/R42H/S133A/S149N/S66Y/V115G/V209L/W38E); HLA-DR DRB1*0301 (DR3) (Homo sapiens, UniProt P01903+P01911, A100K/A102G/A103R/A169T/F55Y/I96L/K41T/L162R/M171V/P40S/Q125H/Q178H/Q39Y/R42S/S66N/T106N/T262R/W38E/Y61H); HLA-DR DRB1*0701 (DR7) (Homo sapiens, UniProt P01903+P01911, A100R/A102G/A103Q/D57E/D86V/E43K/F76Y/K127E/L162R/M171V/P40G/Q125H/Q99D/R33Q/R42Y/R54Q/S133A/S66F/T210M/V115G/Y107V/Y59L/Y89S).

Holding throughout (assay): biochemical
Holding throughout (type): binding

The target in another experiment is HLA-DR DRB5*0101 (DR51) (Homo sapiens, UniProt P01903+Q30154). Conditions: DRB5 *0101.
The target of another experiment is HLA-DR DRB1*1302 (DR13) (Homo sapiens, UniProt P01903+P01911, A100E/A169T/K41T/L162R/M171V/P40S/Q125H/Q178H/Q39Y/Q99D/R42S/S66N/T262R/V115G/W38E/Y61H). The conditions noted are these: DRBI *1302.
The target of a further experiment is HLA-DR DRB1*1101 (DR11) (Homo sapiens, UniProt P01903+P01911, A100R/A169T/A87E/I96F/K41T/L162R/M171V/P40S/Q125H/Q178H/Q39Y/Q99D/R42S/S66Y/T262R/V115G/W38E). The conditions noted are these: DRB1 *1101.
Another experiment deals with HLA-DR DRB1*1501 (DR15) (Homo sapiens, UniProt P01903+P01911). The conditions noted are these: DRBI *1501.
The next experiment deals with HLA-DR DRB4*0101 (DR53) (Homo sapiens, UniProt P01903+P13762, G164S). Conditions: DRB4 *0101.

Where two headings read alike, the source gives them in different places. No end group written: not given here.

The values below come from patent US20060079453A1, “Hla binding peptides and their uses” (priority 2002, published 2006).

Sequence of HLA-DR DRB1*0301 (DR3) (P01903 26-254 limits assumed, other chains not shown): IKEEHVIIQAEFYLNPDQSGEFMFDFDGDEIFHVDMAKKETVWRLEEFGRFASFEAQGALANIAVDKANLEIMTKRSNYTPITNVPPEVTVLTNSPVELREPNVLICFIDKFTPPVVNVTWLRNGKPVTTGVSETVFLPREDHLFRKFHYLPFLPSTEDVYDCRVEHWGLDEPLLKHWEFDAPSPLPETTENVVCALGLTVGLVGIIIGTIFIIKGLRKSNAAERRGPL
Sequence of HLA-DR DRB1*1101 (DR11) (P01903 26-254 limits assumed, other chains not shown): as above
Sequence of HLA-DR DRB1*1302 (DR13) (P01903 26-254 limits assumed, other chains not shown): as above

For GYKVLVLNPSV, the IC50 on HLA-DR DRB1*0101 (DR1) (read-out: DRB1 *0101) was determined as 0.016 µM; at HLA-DR DRB1*0901 (DR9) (read-out: DRB1 *0901), 8.79 µM; at HLA-DR DRB1*0401 (DR4) (read-out: DRB1 *0401) it was 0.027 µM; on HLA-DR DRB1*0301 (DR3) (read-out: DRB1 *0301), 72.4 µM.

Consider KEYVLDLYPEPTDLY, for which the IC50 at HLA-DR DRB5*0101 (DR51) was above 55.1 µM; at HLA-DR DRB1*0101 (DR1) (DRB1 *0101), 5.95 µM; on HLA-DR DRB1*1302 (DR13), above 14.8 µM; against HLA-DR DRB1*0901 (DR9) (DRB1 *0901), above 49.9 µM; at HLA-DR DRB1*1101 (DR11), above 59.2 µM; at HLA-DR DRB1*0401 (DR4) (DRB1 *0401), 0.131 µM. Also, the IC50 was 3.17 µM against HLA-DR DRB1*1501 (DR15) and above 72.3 µM on HLA-DR DRB1*0701 (DR7) (DRB1 *0701).

As for VYDFAFADLTVVYRE, the IC50 was 10.7 µM on HLA-DR DRB4*0101 (DR53); 0.173 µM on HLA-DR DRB1*0101 (DR1) (DRB1 *0101); above 13.1 µM against HLA-DR DRB1*1302 (DR13); 0.155 µM on HLA-DR DRB1*0901 (DR9) (DRB1 *0901); above 18 µM against HLA-DR DRB1*1101 (DR11); 9.45 µM against HLA-DR DRB1*1501 (DR15). In addition, on HLA-DR DRB1*0701 (DR7) (DRB1 *0701), the IC50 was 7.01 µM.

In the case of RIVYRDGNPFAVCKV, the IC50 at HLA-DR DRB1*1302 (DR13) was found to be 0.122 µM; at HLA-DR DRB1*0901 (DR9) (DRB1 *0901), 4.96 µM; against HLA-DR DRB1*0401 (DR4) (DRB1 *0401) it was 0.019 µM; against HLA-DR DRB1*0301 (DR3), 0.144 µM; on HLA-DR DRB1*1501 (DR15), 0.081 µM.

On to GGVLVNEILNHMK, for which the IC50 worked out at 54.4 µM on HLA-DR DRB1*0901 (DR9) (read-out: DRB1 *0901), 0.359 µM on HLA-DR DRB1*0401 (DR4) (read-out: DRB1 *0401), 0.7 µM on HLA-DR DRB1*0301 (DR3) (read-out: DRB1 *0301) and 29.5 µM at HLA-DR DRB1*0701 (DR7) (read-out: DRB1 *0701).

For the compound VQQLLMGALTVTCPL, the IC50 against HLA-DR DRB5*0101 (DR51) was found to be 7.15 µM; at HLA-DR DRB4*0101 (DR53) it was 0.204 µM; on HLA-DR DRB1*0101 (DR1) (DRB1 *0101), 0.01 µM; against HLA-DR DRB1*1302 (DR13), 0.574 µM; against HLA-DR DRB1*0901 (DR9) (DRB1 *0901) it was 0.18 µM; at HLA-DR DRB1*1101 (DR11), 11.1 µM. Also, the IC50 on HLA-DR DRB1*0301 (DR3) worked out at 34.3 µM; against HLA-DR DRB1*0701 (DR7) (DRB1 *0701), 0.071 µM.

Take `CC[C@H](C)[C@H](N)C(=O)N[C@@H](CCCNC(=N)N)C(=O)N[C@H](C(=O)N[C@@H](CC(C)C)C(=O)N[C@@H](CCC(N)=O)C(=O)N[C@@H](CCC(=O)O)C(=O)N[C@@H](CC(C)C)C(=O)N[C@@H](CC(C)C)C(=O)N[C@@H](CCSC)C(=O)NCC(=O)N[C@@H](CO)C(=O)N[C@@H](Cc1ccccc1)C(=O)NCC(=O)N[C@H](C(=O)N[C@H](C(=O)O)C(C)C)[C@@H](C)CC)[C@@H](C)CC`: the IC50 was above 55.1 µM against HLA-DR DRB5*0101 (DR51); 0.017 µM on HLA-DR DRB4*0101 (DR53); 0.067 µM against HLA-DR DRB1*0101 (DR1) (DRB1 *0101); 1.04 µM on HLA-DR DRB1*1302 (DR13); 0.271 µM on HLA-DR DRB1*0901 (DR9) (DRB1 *0901); 7.98 µM at HLA-DR DRB1*1101 (DR11). Moreover, the IC50 on HLA-DR DRB1*0401 (DR4) (DRB1 *0401) was determined as 0.724 µM; against HLA-DR DRB1*0301 (DR3), 31.8 µM; at HLA-DR DRB1*1501 (DR15), 0.294 µM; on HLA-DR DRB1*0701 (DR7) (DRB1 *0701) it was 2 µM.

On to VLDLYPEPTDLYCYE, for which the IC50 against HLA-DR DRB5*0101 (DR51) was above 15.3 µM; on HLA-DR DRB4*0101 (DR53), 0.018 µM; at HLA-DR DRB1*0101 (DR1) (DRB1 *0101) it was 11.2 µM; at HLA-DR DRB1*1302 (DR13), above 12 µM; at HLA-DR DRB1*0901 (DR9) (DRB1 *0901), above 32.2 µM; against HLA-DR DRB1*1101 (DR11) it was above 15.2 µM. Further, the IC50 on HLA-DR DRB1*0401 (DR4) (DRB1 *0401) was 0.203 µM; against HLA-DR DRB1*0301 (DR3), 0.121 µM; against HLA-DR DRB1*1501 (DR15), 21.6 µM; at HLA-DR DRB1*0701 (DR7) (DRB1 *0701) it was above 72.3 µM.

QAISPRTLNSPAIF: the IC50 on HLA-DR DRB1*0101 (DR1) (read-out: DRB1 *0101) stood at 1.96 µM; at HLA-DR DRB1*0901 (DR9) (read-out: DRB1 *0901), 286 µM; on HLA-DR DRB1*0401 (DR4) (read-out: DRB1 *0401), 6.21 µM; on HLA-DR DRB1*0301 (DR3) (read-out: DRB1 *0301), 298 µM; on HLA-DR DRB1*0701 (DR7) (read-out: DRB1 *0701) it was 39.7 µM.

With SVTWIGAAPLILSPI, the IC50 at HLA-DR DRB1*0101 (DR1) (read-out: DRB1 *0101) was 0.0041 µM; on HLA-DR DRB1*0901 (DR9) (read-out: DRB1 *0901), 0.03 µM; on HLA-DR DRB1*0401 (DR4) (read-out: DRB1 *0401) it was 3.15 µM; on HLA-DR DRB1*0301 (DR3) (read-out: DRB1 *0301) it was above 81.8 µM; on HLA-DR DRB1*0701 (DR7) (read-out: DRB1 *0701), 0.083 µM.

As for `CC[C@H](C)[C@H](NC(=O)[C@H](CC(C)C)NC(=O)[C@H](CCCCN)NC(=O)[C@H](CCCCN)NC(=O)[C@@H](N)Cc1ccc(O)cc1)C(=O)N[C@@H](CCSC)C(=O)N[C@@H](Cc1ccc(O)cc1)C(=O)N[C@@H](CO)C(=O)N[C@@H](C)C(=O)N[C@@H](Cc1c[nH]cn1)C(=O)N[C@@H](CC(=O)O)C(=O)N[C@H](C(=O)N[C@H](C(=O)N[C@H](C(=O)N[C@@H](CO)C(=O)O)C(C)C)[C@@H](C)O)[C@@H](C)O`, the IC50 came to 5.48 µM against HLA-DR DRB5*0101 (DR51); 0.0058 µM at HLA-DR DRB4*0101 (DR53); 0.017 µM against HLA-DR DRB1*0101 (DR1) (DRB1 *0101); 0.037 µM against HLA-DR DRB1*1302 (DR13); 0.107 µM against HLA-DR DRB1*0901 (DR9) (DRB1 *0901); 0.208 µM against HLA-DR DRB1*1101 (DR11). Besides, the IC50 at HLA-DR DRB1*0301 (DR3) is 22.7 µM; at HLA-DR DRB1*1501 (DR15) it was 0.015 µM.

Take FPTIPLSRLFDNAM: the IC50 is 6.92 µM on HLA-DR DRB1*0101 (DR1) (read-out: DRB1 *0101); 15 µM at HLA-DR DRB1*0901 (DR9) (read-out: DRB1 *0901); 9.46 µM at HLA-DR DRB1*0401 (DR4) (read-out: DRB1 *0401); 46.7 µM on HLA-DR DRB1*0301 (DR3) (read-out: DRB1 *0301); 5.53 µM at HLA-DR DRB1*0701 (DR7) (read-out: DRB1 *0701).
